Laboratory results taken from US6660757B2, “Use of riluzole in the treating acoustic traumas” (Aventis Pharmaceuticals Inc., priority 1998, dated 2003).

Tests used:
[1] = system: compound action potential (CAP) of the auditory nerve; test: acute perifusion of the cochleae: effect of increasing doses on cochlear potentials (CAP); format: in vivo, guinea pigs
From the text: The effect of riluzole in increasing doses was studied according to the technique of acute perifusion of the cochleae:
10 tricolor guinea pigs weighing 200 to 400 g are anesthetized by intraperitoneal injection of urethane (1.4 g/kg) and then trachetomized and artificially ventilated. The external auditory canals are incised for the putting in place of ear bars in a restraining apparatus. During the entire duration of the experiment, the electrocardiogram is monitored and the central temperature regulated by means of a heating cover at 38.5±1° C. The experiments are carried out in a soundproofed, anechoic and faradized chamber. Access to the cochlea is obtained via a ventral approach. After opening of the tympanic bulla, 3 holes 0.2 mm in diameter are manually cut in the basal turn of the cochlea: the first in the tympanic ramp to receive an infusion pipette, the second in the vestibular ramp to allow the outflow of the infused solutions out of the cochlea and the third also in the vestibular ramp to receive a recording electrode.
The cochlear potentials recorded in the vestibular ramp are stored and then numerically filtered to dissociate the compound action potential (CAP), a control for the activity of the auditory nerve and the receptor potentials obtained from the ciliated cells, namely the microphonic potential (MP) and the summation potential (SP). A low-pass filter of 2.5 kHz is used to extract the CAP whose amplitude is measured between N1 (1st negative wave) and P1 (1st positive wave) as well as the SP measured between 0 and 5 ms. A band-pass filter around 8 kHz (acoustic stimulation frequency) is used to extract the MP (6-10 kHz, filter slope: 48 db/octave).
After introducing the pipette (about 0.1 mm in diameter at the tip) into the tympanic ramp with the aid of a micromanipulator, leaktightness being provided by means of a glue ball placed near the tip, artificial perilymph is infused at the rate of 2.5 μl/min. A second infusion of artificial perilymph containing 0.1% dimethyl sulfoxide is carried out. […] These cochlear potentials are recorded immediately after each infusion. The duration of the infusions is 10 minutes.
The IC50 is observed for a dose of 300 μM (FIG. 2). In all the animals, a complete disappearance of the CAP is obtained for a dose of 500 μM.

acoustic trauma = test: protective effect on acoustic trauma (sound overstimulation 6 kHz, 130 dB SPL, 15 minutes); format: in vivo, guinea pigs; details: 500 μM in perilymph
Description: The protective effect on acoustic trauma was tested on 10 animals for which a preliminary infusion of artificial perilymph is carried out for 10 minutes. After evaluation of the audiometric thresholds, a second 35 minute infusion either of artificial perilymph alone (5 animals: control group) or of perilymph containing 500 μM riluzole (5 animals) is carried out. Ten minutes after the start of the second infusion, a sound overstimulation (6 kHz, 130 dB SPL) is applied for 15 minutes. Finally, a third infusion of artificial perilymph allows rinsing of the cochlea. The audiometric thresholds are then recorded. The auditory loss for each frequency induced by sound exposure is defined as the difference between the audiometric thresholds recorded before and after the sound over-exposure.

[2] = cumulative increasing doses 50 to 500 μM, intracochlear infusion

Nc1nc2ccc(OC(F)(F)F)cc2s1 [riluzole, 2-amino-6-trifluoromethoxy-benzothiazole]
IC50 ([1]; Cavia porcellus, 10 min, intracochlear infusion of cumulative increasing doses 50 to 500 μM in artificial perilymph with 0.1% dimethyl sulfoxide, 10 minutes each, read-out: IC50 for reduction of the amplitude of the compound action potential (CAP)): 300 µM | effect on CAP of the auditory nerve [1, 2]: reduction in the compound action potential (CAP) of the auditory nerve dependant on the dose | effect on latency N1 of the CAP [1, 2]: increase in the latency N1 | dose for complete disappearance of the CAP ([1]; intracochlear infusion, in all the animals): 500 µM | auditory losses after sound overstimulation versus control group (acoustic trauma; 35 minute infusion, frequencies of between 8 and 16 kHz): control group exhibits, for frequencies of between 8 and 16 kHz, much higher auditory losses | histological study of the cochleae by electron microscopy: innervation (acoustic trauma; after sound overstimulation): virtually normal innervation
